From the supplement of paper PMC10307832 come the findings set out here.

Common to all, as to assay: relative viability (nuclei count vs DMSO), 5 days (fraction); higher = more cells survive
Compound in experiment [1]: CC1(COc2ccc3c(c2)ncn3-c2ccc3cccc(N4CCC(N)CC4)c3n2)COC1 [Crenolanib]
In short, it runs like this: (§1)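 MetaXpress counted nuclei in 4× images of lung cancer cell lines that had been fixed, permeabilised and Hoechst-stained in one step. Before that, cells in 1536-well plates were kept overnight at 37 °C, pinned with five √10-spaced library-drug doses on vehicle-anchored plates, and cultured 5 days without medium change. Viability takes treated-well nuclei over vehicle-well nuclei and uses the median across plates. Plates were accepted only at control CV below 25% and at least one doubling.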

Compound in experiment [2]: O=C1NC(=O)[C@@H](c2cn3c4c(cccc24)CCC3)[C@@H]1c1c[nH]c2ccccc12 [Tivantinib]
In short, it runs like this:
as §1

Compound in experiment [3]: CC1(COc2ccc3c(c2)ncn3-c2ccc3cccc(N4CCC(N)CC4)c3n2)COC1 [Crenolanib] + CC(=O)Nc1cccc(-n2c(=O)n(C3CC3)c(=O)c3c(Nc4ccc(I)cc4F)n(C)c(=O)c(C)c32)c1 [Trametinib] (partner 0.02 µM)
In short, it runs like this:
(§2)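 Relative viability was taken as the ratio of nuclei in treated wells to nuclei in vehicle wells. Lung cancer cell lines in 1536-well plates received compounds by pin tool one day after seeding, either one drug alone or a fixed anchor-drug dose plus five library-drug doses (not always all listed) in √10 steps. Nuclei were counted on 4× images after 5 days of treatment, and values are medians of duplicate plates.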

Compound in experiment [4]: O=C1NC(=O)[C@@H](c2cn3c4c(cccc24)CCC3)[C@@H]1c1c[nH]c2ccccc12 [Tivantinib] + CC1(C)CCC(c2ccc(Cl)cc2)=C(CN2CCN(c3ccc(C(=O)NS(=O)(=O)c4ccc(N[C@H](CCN5CCOCC5)CSc5ccccc5)c(S(=O)(=O)C(F)(F)F)c4)cc3)CC2)C1 [Navitoclax] (partner 0.5 µM)
Put shortly: as §2

Take NCI-H2170: the relative viability came to 0.998 in experiment [1] (0.01 µM); 1.04 in experiment [1] (0.03162 µM); 0.943 in experiment [1] (0.1 µM); 1.01 in experiment [1] (0.3162 µM); 1.01 in experiment [1] (1 µM); 1.01 in experiment [2] (0.01 µM). The relative viability in experiment [2] (0.03162 µM) is 0.922; in experiment [2] (0.1 µM), 0.921; in experiment [3] (first compound 0.01 µM), 0.945; in experiment [3] (first compound 0.03162 µM), 0.93; in experiment [3] (first compound 0.1 µM) it was 0.928; in experiment [3] (first compound 0.3162 µM), 0.9. Moreover, the relative viability in experiment [3] (first compound 1 µM) was 0.927; in experiment [4] (first compound 0.01 µM) it was 0.655; in experiment [4] (first compound 0.03162 µM), 0.555; in experiment [4] (first compound 0.1 µM) it was 0.534.

Turning to NCI-H1395, the relative viability in experiment [1] (0.01 µM) stood at 0.983; in experiment [1] (0.03162 µM) it was 0.778; in experiment [1] (0.1 µM), 0.975; in experiment [1] (0.3162 µM), 0.795; in experiment [1] (1 µM), 0.853; in experiment [2] (0.01 µM) it was 1.07. The relative viability in experiment [2] (0.03162 µM) was 1.08; in experiment [2] (0.1 µM), 0.907; in experiment [2] (0.3162 µM) it was 0.924; in experiment [3] (first compound 0.01 µM) it was 1.05; in experiment [3] (first compound 0.03162 µM), 1.03; in experiment [3] (first compound 0.1 µM), 0.976. For the same cell line, the relative viability in experiment [3] (first compound 0.3162 µM) was 1; in experiment [3] (first compound 1 µM), 1.14; in experiment [4] (first compound 0.01 µM) it was 1.48; in experiment [4] (first compound 0.03162 µM), 1.17; in experiment [4] (first compound 0.1 µM), 1.19; in experiment [4] (first compound 0.3162 µM), 1.58.

On to LC-2-ad, for which the relative viability in experiment [1] (0.01 µM) was determined as 1.01; in experiment [1] (0.03162 µM) it was 0.982; in experiment [1] (0.1 µM), 0.94; in experiment [1] (0.3162 µM) it was 0.976; in experiment [1] (1 µM), 0.866; in experiment [2] (0.01 µM), 0.977. In addition, the relative viability in experiment [2] (0.03162 µM) is 0.933; in experiment [2] (0.1 µM), 0.934; in experiment [2] (0.3162 µM) it was 1.01; in experiment [3] (first compound 0.01 µM) it was 1.05; in experiment [3] (first compound 0.03162 µM) it was 0.901; in experiment [3] (first compound 0.1 µM), 0.916. Moreover, the relative viability in experiment [3] (first compound 0.3162 µM) is 0.97; in experiment [3] (first compound 1 µM) it was 0.894; in experiment [4] (first compound 0.01 µM) it was 0.375; in experiment [4] (first compound 0.03162 µM), 0.436; in experiment [4] (first compound 0.1 µM) it was 0.438; in experiment [4] (first compound 0.3162 µM) it was 0.308.

Regarding PC-14, the relative viability was determined as 1.13 in experiment [1] (0.01 µM); 0.92 in experiment [1] (0.03162 µM); 0.997 in experiment [1] (0.1 µM); 1.02 in experiment [1] (0.3162 µM); 0.821 in experiment [1] (1 µM); 0.946 in experiment [2] (0.01 µM). In addition, the relative viability was 0.985 in experiment [2] (0.03162 µM); 0.99 in experiment [2] (0.1 µM); 0.773 in experiment [2] (0.3162 µM); 0.91 in experiment [3] (first compound 0.01 µM); 0.619 in experiment [3] (first compound 0.03162 µM); 0.679 in experiment [3] (first compound 0.1 µM). Also, the relative viability in experiment [3] (first compound 0.3162 µM) came to 0.716; in experiment [3] (first compound 1 µM) it was 0.647; in experiment [4] (first compound 0.01 µM), 1.05; in experiment [4] (first compound 0.03162 µM), 0.926; in experiment [4] (first compound 0.1 µM) it was 0.981; in experiment [4] (first compound 0.3162 µM), 0.947.

For CAL-12T, the relative viability came to 1.07 in experiment [1] (0.01 µM); 0.948 in experiment [1] (0.03162 µM); 0.984 in experiment [1] (0.1 µM); 1.05 in experiment [1] (0.3162 µM); 0.992 in experiment [1] (1 µM); 1.1 in experiment [2] (0.01 µM). In addition, the relative viability in experiment [2] (0.03162 µM) is 0.853; in experiment [2] (0.1 µM), 0.969; in experiment [2] (0.3162 µM), 0.627; in experiment [3] (first compound 0.01 µM), 0.466; in experiment [3] (first compound 0.03162 µM), 0.345; in experiment [3] (first compound 0.1 µM), 0.372. In addition, the relative viability in experiment [3] (first compound 0.3162 µM) is 0.347; in experiment [3] (first compound 1 µM), 0.294; in experiment [4] (first compound 0.01 µM), 1.2; in experiment [4] (first compound 0.03162 µM) it was 1.3; in experiment [4] (first compound 0.1 µM) it was 1.16; in experiment [4] (first compound 0.3162 µM) it was 1.03.
